The results in this text go back to patent publication US20240299328A1, “COMPOSITIONS COMPRISING 15-HEPE AND METHODS OF TREATING AND/OR PREVENTING HEMATOLOGIC DISORDERS AND RELATED DISEASES” (Afimmune Limited, priority 2023, published 2024).

This data set has as its system Sprague Dawley rats. The experiment in a line: 26 week rat toxicity study: coagulation. It is filed as in vivo. The note with it: male rats, 26 weeks. The method, then: The test and control items were administered to the appropriate animals by once daily oral gavage 7 days a week for a minimum of 26 weeks. The volume for each animal was based on the most recent body weight measurements. The doses were given using a syringe with attached gavage cannula. The first day of dosing was designated as Day 1. The dosing formulations were removed from the refrigerator and stirred for at least 30 minutes before dosing. The dosing formulations were also stirred continuously during dosing.
Sample Collection: Blood was collected via the tail vein unless immediately prior to necropsy, when blood was collected from the orbital sinus under non-recoverable isoflurane anesthesia. Blood was collected in ascending animal order unless samples were collected prior to necropsy where the order of euthanasia was followed. Additional blood samples were obtained (e.g., due to clotting of non-serum samples) if permissible sampling frequency and blood volume were not exceeded. After collection, samples were transferred to the appropriate laboratory for processing. Samples were collected according to the following table.
Coagulation: A 0.5 mL blood sample was collected using the anticoagulant 3.8% (w/v) trisodium citrate for processing to plasma. To assess coagulation the following coagulation parameters were measured.
Animals: The study used male and female Sprague Dawley rats purchased from Charles River UK Limited (Margate, Kent, UK). The target age at the initial dosing was 7-8 weeks. The target weight at the initial dosing was 175-300 g (males) and 120-250 g (females). Each animal was identified using a subcutaneously implanted electronic cylindrical, “glass-sealed” TROVAN microchip.

Where [1] appears, read: 6000/3000 mg/kg/day oral gavage.

Marks after values point to notes of the source that are not given here.

On to `CC/C=C\C[C@H](O)/C=C/C=C\C/C=C\C/C=C\CCCC(=O)OCC` [DS102, 15(S)-hydroxy-(5Z,8Z,11Z,13E,17Z)-eicosapentaenoic acid ethyl ester], for which, where the note is “2000 mg/kg/day oral gavage”, the “Activated Partial Thromboplastin Time (APTT), Mean” value is 15.03* sec; the “Fibrinogen (FIB), Mean” value is given as 2.35** g/L; the “Prothrombin Time (PT), Mean” value is on record as 10.69** sec. Under setting [1], the “Activated Partial Thromboplastin Time (APTT), Mean” value is 15.73** sec; the “Fibrinogen (FIB), Mean” value is 2.26** g/L; the “Prothrombin Time (PT), Mean” value is recorded as 10.81** sec.
